Assay results as given in ChEMBL document CHEMBL1136946, “The regulation of inflammatory cytokine secretion in macrophage cell line by the chemical constituents of Rhus sylvestris” (Bioorg Med Chem Lett, 2009).
Activity calls are given as the source filed them. The calls are words filed in the database; no cut-off is given here.

Legend:
HeLa = assay: Cytotoxicity against human HeLa cells by MTT assay; type: functional, cell-based
MCF7 = assay: Cytotoxicity against human MCF7 cells by MTT assay; type: functional, cell-based
SK-MEL-1 = assay: Cytotoxicity against human SK-MEL-1 cells by MTT assay; type: functional, cell-based
RAW264.7 [1] = assay: Antiinflammatory activity in mouse RAW264.7 cells assessed as inhibition LPS-induced TNFalpha secretion at 1 uM after 12 hrs; type: functional; settings: RAW264.7, 12 h
RAW264.7 [2] = assay: Antiinflammatory activity in mouse RAW264.7 cells assessed as inhibition LPS-induced TNFalpha secretion at 0.01 uM after 12 hrs; type: functional; settings: RAW264.7, 12 h
RAW264.7 [3] = assay: Antiinflammatory activity in mouse RAW264.7 cells assessed as inhibition LPS-induced IL6 secretion at 1 uM after 12 hrs; type: functional; settings: for inhibition at 1 µM: RAW264.7, 12 h

## C=C(C)[C@@H]1CC[C@]2(C)CC[C@]3(C)[C@H](CC[C@@H]4[C@@]5(C)CC[C@H](O)C(C)(C)[C@@H]5CC[C@]43C)[C@@H]12 [LUPEOL]
HeLa
  IC50: > 50 µM
MCF7
  IC50: > 50 µM
SK-MEL-1
  IC50: > 50 µM

## CC1(C)CC[C@]2(C)CC[C@]3(C)C(=CC[C@@H]4[C@@]5(C)CC[C@H](O)C(C)(C)[C@@H]5CC[C@]43C)[C@@H]2C1 [beta-AMYRIN]
HeLa
  IC50: > 50 µM
MCF7
  IC50: > 50 µM
SK-MEL-1
  IC50: > 50 µM

## CC(C)=CCC[C@@H](C)[C@H]1CC[C@@]2(C)[C@@H]3CC=C4[C@@H](CC[C@H](O)C4(C)C)[C@]3(C)CC[C@]12C
HeLa
  IC50: > 50 µM
RAW264.7 [1]
  inhibition at 1 µM: 80.9%
MCF7
  IC50: > 50 µM
SK-MEL-1
  IC50: > 50 µM

## CC1(C)CC[C@]2(C)CC[C@]3(C)[C@H]4CC=C5[C@@H](CC[C@H](O)C5(C)C)[C@]4(C)CC[C@@]3(C)[C@@H]2C1 [GLUTINOL]
RAW264.7 [2]
  inhibition at 0.01 µM: 20.9%
RAW264.7 [3]
  Activity: inactive
HeLa
  IC50: > 50 µM
MCF7
  IC50: > 50 µM
SK-MEL-1
  IC50: > 50 µM

## C=C(C)C(=O)CC[C@@H](C)[C@H]1CC[C@@]2(C)[C@H]3CC[C@H]4C(C)(C)C(=O)CC[C@@]45C[C@@]35CC[C@]12C
RAW264.7 [2]
  inhibition at 0.01 µM: 20.9%
RAW264.7 [3]
  Activity: inactive
HeLa
  IC50: 24.8 µM
MCF7
  IC50: 30.9 µM
SK-MEL-1
  IC50: 15.9 µM

## COc1ccc(/C=C/C(=O)c2ccc(OC)cc2O)cc1
RAW264.7 [2]
  inhibition at 0.01 µM: 20.9%
RAW264.7 [3]
  Activity: inactive
HeLa
  IC50: > 50 µM
MCF7
  IC50: 45.4 µM
SK-MEL-1
  IC50: 41.7 µM

## CC[C@H](CC[C@@H](C)[C@H]1CC[C@H]2[C@@H]3CC=C4C[C@@H](O)CC[C@]4(C)[C@H]3CC[C@]12C)C(C)C [BETA-SITOSTEROL]
RAW264.7 [2]
  inhibition at 0.01 µM: 20.9%
RAW264.7 [3]
  inhibition at 1 µM: 54.5%
HeLa
  IC50: 46.2 µM
MCF7
  IC50: 42.1 µM
SK-MEL-1
  IC50: > 50 µM

## CC(C)=CCC[C@@H](C)[C@H]1CC[C@@]2(C)[C@H]3CC[C@H]4C(C)(C)C(=O)CC[C@@]45C[C@@]35CC[C@]12C
RAW264.7 [3]
  Activity: inactive
HeLa
  IC50: > 50 µM
RAW264.7 [1]
  inhibition at 1 µM: 15.2%
MCF7
  IC50: > 50 µM
SK-MEL-1
  IC50: > 50 µM

## CC(=O)O[C@H]1CC[C@]2(C)[C@H]3CC=C4[C@@H]5CC(C)(C)CC[C@]5(C)CC[C@@]4(C)[C@]3(C)CC[C@H]2C1(C)C [beta-AMYRIN ACETATE]
RAW264.7 [2]
  inhibition at 0.01 µM: 20.9%
RAW264.7 [3]
  Activity: inactive
HeLa
  IC50: > 50 µM
MCF7
  IC50: 26.7 µM
SK-MEL-1
  IC50: > 50 µM

## C=C(C)C(O)CC[C@@H](C)[C@H]1CC[C@@]2(C)[C@H]3CC[C@H]4C(C)(C)C(=O)CC[C@@]45C[C@@]35CC[C@]12C (stereo not given in full)
RAW264.7 [2]
  inhibition at 0.01 µM: 20.9%
RAW264.7 [3]
  inhibition at 1 µM: 54.6%
HeLa
  IC50: > 50 µM
MCF7
  IC50: > 50 µM
SK-MEL-1
  IC50: > 50 µM
